Results: PMC5218480 (PLoS ONE, 2017)

Tested on: MV-4-11 cells
Experiment: Gene expression microarray analysis (Affymetrix PrimeView) and GSEA
Assay type: cell-based, human
Parameters: RFU PODN (11730768_x_at) / Fold change /veh PODN (11730768_x_at) / RFU LINC00158 (11744669_a_at) / Fold change /veh LINC00158 (11744669_a_at) / RFU DUSP10 (11751237_a_at) / Fold change /veh DUSP10 (11751237_a_at) / RFU ID3 (11757404_x_at) / Fold change /veh ID3 (11757404_x_at) / RFU PLEKHG5 (11737974_s_at) / Fold change /veh PLEKHG5 (11737974_s_at) / RFU LRRC4B (11730491_at) / Fold change /veh LRRC4B (11730491_at) / RFU GIMAP4 (11747438_a_at) / Fold change /veh GIMAP4 (11747438_a_at) / RFU KRT8 (11758183_x_at) / Fold change /veh KRT8 (11758183_x_at) / RFU CNN1 (11734310_a_at) / Fold change /veh CNN1 (11734310_a_at) / RFU VPS37D (11726825_at) / Fold change /veh VPS37D (11726825_at) / RFU C10orf10 (11716522_x_at) / Fold change /veh C10orf10 (11716522_x_at) / RFU KIR2DL2 /// KIR2DL4 /// KIR2DL5A /// KIR2DL5B /// KIR2DS1 /// KIR2DS2 /// KIR2DS3 /// KIR2DS4 /// KIR3DL3 /// KIR3DL3 /// KIR3DS1 (11738374_at) / Fold change /veh KIR2DL2 /// KIR2DL4 /// KIR2DL5A /// KIR2DL5B /// KIR2DS1 /// KIR2DS2 /// KIR2DS3 /// KIR2DS4 /// KIR3DL3 /// KIR3DL3 /// KIR3DS1 (11738374_at) / RFU C1QL1 (11718748_at) / Fold change /veh C1QL1 (11718748_at) / RFU TMPRSS4 (11747572_a_at) / Fold change /veh TMPRSS4 (11747572_a_at) / RFU HAMP (11756126_x_at) / Fold change /veh HAMP (11756126_x_at) / RFU RNFT2 (11725882_a_at) / Fold change /veh RNFT2 (11725882_a_at) / RFU NR4A2 (11747474_a_at) / Fold change /veh NR4A2 (11747474_a_at) / RFU ABCC12 (11746883_a_at) / Fold change /veh ABCC12 (11746883_a_at) / RFU TMEM136 (11760407_x_at) / Fold change /veh TMEM136 (11760407_x_at) / RFU CLDN22 /// WWC2 (11732394_at) / Fold change /veh CLDN22 /// WWC2 (11732394_at) / RFU HLA-DPB1 (11760878_x_at) / Fold change /veh HLA-DPB1 (11760878_x_at) / RFU SPINT1 (11716480_a_at) / Fold change /veh SPINT1 (11716480_a_at) / RFU GAP43 (11754022_s_at) / Fold change /veh GAP43 (11754022_s_at) / RFU A4GNT (11735810_at) / Fold change /veh A4GNT (11735810_at) / RFU PRB3 (11715151_x_at) / Fold change /veh PRB3 (11715151_x_at) / RFU TUBB4B (11761932_at) / Fold change /veh TUBB4B (11761932_at) / RFU CAPN14 (11732068_a_at) / Fold change /veh CAPN14 (11732068_a_at) / RFU TMCC2 (11721928_a_at) / Fold change /veh TMCC2 (11721928_a_at) / RFU IRGQ (11745062_a_at) / Fold change /veh IRGQ (11745062_a_at) / RFU FAM174B (11720279_a_at) / Fold change /veh FAM174B (11720279_a_at) / RFU TMPRSS4 (11748680_a_at) / Fold change /veh TMPRSS4 (11748680_a_at) / RFU FAM212B (11763350_a_at) / Fold change /veh FAM212B (11763350_a_at) / RFU PLEKHG5 (11743358_a_at) / Fold change /veh PLEKHG5 (11743358_a_at) / RFU ZSCAN30 (11745921_a_at) / Fold change /veh ZSCAN30 (11745921_a_at) / RFU CMKLR1 (11741424_a_at) / Fold change /veh CMKLR1 (11741424_a_at) / RFU LOC101060620 /// MAPK8IP1 (11723275_at) / Fold change /veh LOC101060620 /// MAPK8IP1 (11723275_at) / RFU SPTSSB (11747773_x_at) / Fold change /veh SPTSSB (11747773_x_at) / RFU PRSS12 (11739890_at) / Fold change /veh PRSS12 (11739890_at) / RFU BIN1 (11741810_x_at) / Fold change /veh BIN1 (11741810_x_at) / RFU WNT11 (11732464_a_at) / Fold change /veh WNT11 (11732464_a_at) / RFU C10orf10 (11716521_a_at) / Fold change /veh C10orf10 (11716521_a_at) / RFU C5orf56 (11738089_at) / Fold change /veh C5orf56 (11738089_at) / RFU CYB561 (11721691_x_at) / Fold change /veh CYB561 (11721691_x_at) / RFU ANKRD19P (11752326_a_at) / Fold change /veh ANKRD19P (11752326_a_at) / RFU OR2T12 /// OR2T33 /// OR2T8 (11738714_s_at) / Fold change /veh OR2T12 /// OR2T33 /// OR2T8 (11738714_s_at) / RFU VCAN (11748164_a_at) / Fold change /veh VCAN (11748164_a_at) / RFU JSRP1 (11732532_at) / Fold change /veh JSRP1 (11732532_at) / RFU KRTAP10-11 (11738290_x_at) / Fold change /veh KRTAP10-11 (11738290_x_at) / RFU MYO3A (11730013_a_at) / Fold change /veh MYO3A (11730013_a_at) / RFU EBF3 (11725865_a_at) / Fold change /veh EBF3 (11725865_a_at) / RFU CAMK2N1 (11719241_x_at) / Fold change /veh CAMK2N1 (11719241_x_at) / RFU C5orf56 (11738088_a_at) / Fold change /veh C5orf56 (11738088_a_at) / RFU OLFML3 (11715873_a_at) / Fold change /veh OLFML3 (11715873_a_at) / RFU LOC100653217 /// NTM (11731650_a_at) / Fold change /veh LOC100653217 /// NTM (11731650_a_at) / RFU MAPK11 (11762145_a_at) / Fold change /veh MAPK11 (11762145_a_at) / RFU FIZ1 (11724087_x_at) / Fold change /veh FIZ1 (11724087_x_at) / RFU OASL (11726364_x_at) / Fold change /veh OASL (11726364_x_at) / RFU SOX15 (11748057_x_at) / Fold change /veh SOX15 (11748057_x_at) / RFU CD79A (11719716_a_at) / Fold change /veh CD79A (11719716_a_at) / RFU HIST1H1D (11736915_at) / Fold change /veh HIST1H1D (11736915_at) / RFU CASKIN2 (11723855_a_at) / Fold change /veh CASKIN2 (11723855_a_at) / RFU LOC730098 (11760151_x_at) / Fold change /veh LOC730098 (11760151_x_at) / RFU OR4N2 (11742367_at) / Fold change /veh OR4N2 (11742367_at) / RFU PRRT2 (11749266_a_at) / Fold change /veh PRRT2 (11749266_a_at) / RFU SNX32 (11753110_a_at) / Fold change /veh SNX32 (11753110_a_at) / RFU CDHR5 (11726645_a_at) / Fold change /veh CDHR5 (11726645_a_at) / RFU RCAN1 (11760418_a_at) / Fold change /veh RCAN1 (11760418_a_at) / RFU FAM167A (11723789_a_at) / Fold change /veh FAM167A (11723789_a_at) / RFU FAM26E (11764081_at) / Fold change /veh FAM26E (11764081_at) / RFU ISYNA1 (11749810_s_at) / Fold change /veh ISYNA1 (11749810_s_at) / RFU ACY1 (11761880_at) / Fold change /veh ACY1 (11761880_at) / RFU 11764098_at / Fold change /veh 11764098_at / RFU SAMD14 (11745864_x_at) / Fold change /veh SAMD14 (11745864_x_at) / RFU NPB (11741838_a_at) / Fold change /veh NPB (11741838_a_at) / RFU TMPRSS6 (11731388_a_at) / Fold change /veh TMPRSS6 (11731388_a_at) / RFU KRTAP10-2 (11738614_at) / Fold change /veh KRTAP10-2 (11738614_at) / RFU ARHGAP8 /// PRR5-ARHGAP8 (11727945_x_at) / Fold change /veh ARHGAP8 /// PRR5-ARHGAP8 (11727945_x_at) / RFU KRTAP5-7 /// NADSYN1 (11734609_at) / Fold change /veh KRTAP5-7 /// NADSYN1 (11734609_at) / RFU RASL12 (11751679_a_at) / Fold change /veh RASL12 (11751679_a_at) / RFU CDKN2B (11736163_a_at) / Fold change /veh CDKN2B (11736163_a_at) / RFU PRF1 (11729649_at) / Fold change /veh PRF1 (11729649_at) / RFU, ZNF638 /// ZNF638-IT1 / Fold change vs veh, ZNF638 /// ZNF638-IT1 / RFU, PANK3 / Fold change vs veh, PANK3 / RFU, SH3YL1 / Fold change vs veh, SH3YL1 / RFU, ZEB2 / Fold change vs veh, ZEB2 / RFU, NRIP1 / Fold change vs veh, NRIP1 / RFU, PTTG1IP / Fold change vs veh, PTTG1IP / RFU, CAPN2 / Fold change vs veh, CAPN2 / RFU, MED14 / Fold change vs veh, MED14 / RFU, SNORA58 / Fold change vs veh, SNORA58 / RFU, C1orf63 / Fold change vs veh, C1orf63 / RFU, LRRFIP1 / Fold change vs veh, LRRFIP1 / RFU, NDUFAF7 / Fold change vs veh, NDUFAF7 / RFU, SLC12A2 / Fold change vs veh, SLC12A2 / RFU, IBTK / Fold change vs veh, IBTK / RFU, ESF1 / Fold change vs veh, ESF1 / Fold change vs veh, TMEM50B / RFU, TAOK1 / Fold change vs veh, TAOK1 / RFU, ACBD3 / Fold change vs veh, ACBD3 / RFU, TMA16 / Fold change vs veh, TMA16 / RFU, RWDD3 / Fold change vs veh, RWDD3 / RFU, BCAT1 / Fold change vs veh, BCAT1 / RFU, EDEM3 / Fold change vs veh, EDEM3 / RFU, TMEM33 / Fold change vs veh, TMEM33 / RFU, WDR75 / Fold change vs veh, WDR75 / RFU, AHCTF1 / Fold change vs veh, AHCTF1 / RFU, TFRC / Fold change vs veh, TFRC / RFU, ZDHHC17 / Fold change vs veh, ZDHHC17 / RFU, NOM1 / Fold change vs veh, NOM1 / RFU, ARL8B / Fold change vs veh, ARL8B / RFU, ZBTB11 / Fold change vs veh, ZBTB11 / RFU, TAMM41 / Fold change vs veh, TAMM41 / RFU, KIAA1704 /// LOC100996395 / Fold change vs veh, KIAA1704 /// LOC100996395 / RFU, ING1 / Fold change vs veh, ING1 / RFU, TRMT61B / Fold change vs veh, TRMT61B / RFU, FUBP3 / Fold change vs veh, FUBP3 / RFU, TP53 / Fold change vs veh, TP53 / RFU, TNKS2 / Fold change vs veh, TNKS2 / RFU, ZFP14 / Fold change vs veh, ZFP14 / RFU, ACTR2 / Fold change vs veh, ACTR2 / RFU, PPP3R1 / Fold change vs veh, PPP3R1 / RFU, PIK3R1 / Fold change vs veh, PIK3R1 / RFU, HNRNPA1 / Fold change vs veh, HNRNPA1 / RFU, RNF170 / Fold change vs veh, RNF170 / RFU, ZNF28 / Fold change vs veh, ZNF28 / RFU, RNGTT / Fold change vs veh, RNGTT / RFU, OGT / Fold change vs veh, OGT / RFU, BRD1 / Fold change vs veh, BRD1 / RFU, MARS / Fold change vs veh, MARS / RFU, ZNF655 / Fold change vs veh, ZNF655 / RFU, FAHD1 / Fold change vs veh, FAHD1 / RFU, BDP1 / Fold change vs veh, BDP1 / RFU, LRRCC1 / Fold change vs veh, LRRCC1 / RFU, ARID1A / Fold change vs veh, ARID1A / RFU, ZNF146 / Fold change vs veh, ZNF146 / RFU, ZNF330 / Fold change vs veh, ZNF330 / RFU, GPN3 / Fold change vs veh, GPN3 / RFU, C9orf123 / Fold change vs veh, C9orf123 / RFU, N4BP2L2 / Fold change vs veh, N4BP2L2 / RFU, ARFIP1 / Fold change vs veh, ARFIP1 / RFU, FAM179B / Fold change vs veh, FAM179B / RFU, BCL10 / Fold change vs veh, BCL10 / RFU, UHRF1BP1L / Fold change vs veh, UHRF1BP1L / RFU, BET1 / Fold change vs veh, BET1 / RFU, CNOT2 / Fold change vs veh, CNOT2 / RFU, ZNF268 / Fold change vs veh, ZNF268 / Fold change vs veh, ZNF507 / RFU, DGCR2 / Fold change vs veh, DGCR2 / RFU, WDSUB1 / Fold change vs veh, WDSUB1 / Fold change vs veh, HSP90B1 /// MIR3652 / RFU, ADSS / Fold change vs veh, ADSS / RFU, GK / Fold change vs veh, GK / RFU, ZNF148 / Fold change vs veh, ZNF148 / RFU, TAF9 / Fold change vs veh, TAF9 / RFU, SLC1A5 / Fold change vs veh, SLC1A5 / RFU, SLMO2 / Fold change vs veh, SLMO2 / RFU, ABCC4 / Fold change vs veh, ABCC4 / RFU, LOC101060439 /// RAP1B / Fold change vs veh, LOC101060439 /// RAP1B / RFU, RFX7 / Fold change vs veh, RFX7 / RFU, GTPBP10 / Fold change vs veh, GTPBP10 / RFU, CNEP1R1 / Fold change vs veh, CNEP1R1 / RFU, BIVM-ERCC5 /// ERCC5 / Fold change vs veh, BIVM-ERCC5 /// ERCC5 / RFU, ILF3 / Fold change vs veh, ILF3 / RFU 11762660_at / Fold change /veh 11762660_at / RFU VCAN (11757783_s_at) / Fold change /veh VCAN (11757783_s_at) / RFU DDX43 (11728927_at) / Fold change /veh DDX43 (11728927_at) / RFU KRT8 (11758188_x_at) / Fold change /veh KRT8 (11758188_x_at) / RFU NKD1 (11759106_at) / Fold change /veh NKD1 (11759106_at) / RFU SRD5A1 (11742802_a_at) / Fold change /veh SRD5A1 (11742802_a_at) / RFU TPSAB1 /// TPSB2 (11721975_s_at) / Fold change /veh TPSAB1 /// TPSB2 (11721975_s_at) / RFU GSTM3 (11746129_a_at) / Fold change /veh GSTM3 (11746129_a_at) / RFU IL23R (11737362_x_at) / Fold change /veh IL23R (11737362_x_at) / RFU TMEM51 (11727254_a_at) / Fold change /veh TMEM51 (11727254_a_at) / RFU PIWIL2 (11732686_x_at) / Fold change /veh PIWIL2 (11732686_x_at) / RFU ORM1 (11744905_x_at) / Fold change /veh ORM1 (11744905_x_at) / RFU CCDC152 (11743942_at) / Fold change /veh CCDC152 (11743942_at) / RFU ECM1 (11717891_a_at) / Fold change /veh ECM1 (11717891_a_at) / RFU IL23R (11748794_a_at) / Fold change /veh IL23R (11748794_a_at) / RFU TNFAIP8L3 (11732012_x_at) / Fold change /veh TNFAIP8L3 (11732012_x_at) / RFU MBOAT4 (11741988_at) / Fold change /veh MBOAT4 (11741988_at) / RFU 11764193_at / Fold change /veh 11764193_at / RFU TMEM53 (11763286_at) / Fold change /veh TMEM53 (11763286_at) / RFU MAGEB2 (11727129_at) / Fold change /veh MAGEB2 (11727129_at) / RFU TMEM200A (11744735_a_at) / Fold change /veh TMEM200A (11744735_a_at) / RFU CCDC152 (11751479_a_at) / Fold change /veh CCDC152 (11751479_a_at) / RFU FAM211A (11726209_a_at) / Fold change /veh FAM211A (11726209_a_at) / RFU RGS16 (11746705_a_at) / Fold change /veh RGS16 (11746705_a_at) / RFU VCAN (11755009_s_at) / Fold change /veh VCAN (11755009_s_at) / RFU RHOB (11743442_s_at) / Fold change /veh RHOB (11743442_s_at) / RFU RGS16 (11720943_a_at) / Fold change /veh RGS16 (11720943_a_at) / RFU RGS16 (11720944_at) / Fold change /veh RGS16 (11720944_at) / RFU, VPS4B / Fold change vs veh, VPS4B / RFU, CREB1 / Fold change vs veh, CREB1 / RFU, DNAJC13 / Fold change vs veh, DNAJC13 / RFU, GNAQ / Fold change vs veh, GNAQ / RFU, CDK5R1 / Fold change vs veh, CDK5R1 / RFU, ZRANB3 / Fold change vs veh, ZRANB3 / RFU, CUL4A / Fold change vs veh, CUL4A / RFU, CCNY / Fold change vs veh, CCNY / RFU, UFL1 / Fold change vs veh, UFL1 / RFU, COG3 / Fold change vs veh, COG3 / RFU, DIAPH2 / Fold change vs veh, DIAPH2 / RFU, SKA2 / Fold change vs veh, SKA2 / RFU, AFF3 / Fold change vs veh, AFF3 / RFU, LMF1 / Fold change vs veh, LMF1 / RFU, IPO11 / Fold change vs veh, IPO11 / RFU, DFFB / Fold change vs veh, DFFB / RFU, FOXP1 / Fold change vs veh, FOXP1 / RFU, CARD8 / Fold change vs veh, CARD8 / RFU, STRN3 / Fold change vs veh, STRN3 / RFU, ADK / Fold change vs veh, ADK / RFU, RASSF2 / Fold change vs veh, RASSF2 / RFU, WIPF1 / Fold change vs veh, WIPF1 / RFU, LARP1B / Fold change vs veh, LARP1B / RFU, RASA1 / Fold change vs veh, RASA1 / RFU, RB1 / Fold change vs veh, RB1 / RFU, PPFIA1 / Fold change vs veh, PPFIA1 / RFU, MAT2A / Fold change vs veh, MAT2A / RFU, CCT5 / Fold change vs veh, CCT5 / RFU, WDR92 / Fold change vs veh, WDR92 / RFU, CUX1 / Fold change vs veh, CUX1 / RFU, TTC7A / Fold change vs veh, TTC7A / RFU, TMEM135 / Fold change vs veh, TMEM135 / RFU, DEPTOR / Fold change vs veh, DEPTOR / RFU, CPM / Fold change vs veh, CPM / RFU, DNAJB6 / Fold change vs veh, DNAJB6 / RFU, CACNA2D3 / Fold change vs veh, CACNA2D3 / RFU, DTX4 / Fold change vs veh, DTX4 / RFU, TFCP2 / Fold change vs veh, TFCP2 / RFU, GMCL1 /// GMCL1P1 / Fold change vs veh, GMCL1 /// GMCL1P1 / RFU, AEBP2 / Fold change vs veh, AEBP2 / RFU, SNHG1 /// SNORD22 /// SNORD25 /// SNORD26 /// SNORD27 /// SNORD28 /// SNORD29 /// SNORD31 / Fold change vs veh, SNHG1 /// SNORD22 /// SNORD25 /// SNORD26 /// SNORD27 /// SNORD28 /// SNORD29 /// SNORD31 / Fold change (Aza/veh), C12orf56 (ProbeSet 11735607_a_at) / Fold change (ACY-1035/veh), C12orf56 (ProbeSet 11735607_a_at) / Fold change (Aza/veh), FGFR1OP (ProbeSet 11751329_s_at) / Fold change (ACY-1035/veh), FGFR1OP (ProbeSet 11751329_s_at) / Fold change (Aza/veh), VPS36 (ProbeSet 11739960_a_at) / Fold change (ACY-1035/veh), VPS36 (ProbeSet 11739960_a_at) / RFU SYPL1 (11715823_x_at) / Fold change /veh SYPL1 (11715823_x_at) / RFU IGFBP7 (11715501_s_at) / Fold change /veh IGFBP7 (11715501_s_at) / RFU REEP3 (11722064_at) / Fold change /veh REEP3 (11722064_at) / RFU IGLL1 (11728026_x_at) / Fold change /veh IGLL1 (11728026_x_at): dose or concentration left out as unconfirmed
Details: ProbeSet 11757113_a_at; LIST D

In the case of Nc1ncn([C@@H]2O[C@H](CO)[C@@H](O)[C@H]2O)c(=O)n1 [azacitidine], the “Fold change vs veh, SNHG1 /// SNORD22 /// SNORD25 /// SNORD26 /// SNORD27 /// SNORD28 /// SNORD29 /// SNORD31” value is reported as 0.81.
